Laboratory results published in patent US20090306035A1, “Compounds and Methods for modulating the Silencing of a Polynucleotide of Interest” (Emory University, priority 2005, published 2009).

What was measured:
Assay type in all cases: cell-based
miR-30a-3p = assay: miRNA sensor (Luc-T30 reporter with miR-30a-3p target sites), dual luciferase assay of HepG2 cells; conditions: reporter with miR-30 target sequence, endogenously expressed miR-30, FIG. 7
Protocol: In FIG. 6, top left panel, the blue arrowheads in Luc-T30 indicate artificial target sequence against miR-30a-3p. Luc-AT30 has an artificial sequence complementary to that in Luc-T30. […] Relative luciferase activity was calculated by dividing the reporter (Firefly) luciferase activity with co-transfected Renilla luciferase activity. Luciferase activity was decreased by transfecting Luc-T30 in HepG2 (orange bars) without changes in the amount of its mRNA (blue bars). Error bars represent the standard deviation (SD) of three triplicate experiments. […] Error bars represent the standard deviation (SD) from three triplicate experiments. **P=0.004; *****P=0.00001.
This reporter contains the target sequence of miR-30. In the miR-30 system, the endogenously expressed miR-30 was used and, in this cell line, miR-30 has been processed completely. Thus, the addition of enoxacin had no effect.

[1] = test system: shRNA against Luciferase mRNA; assay: GL-3 luciferase reporter transfected into cells expressing shRNA against Luciferase mRNA; conditions: GL-3 luciferase plus shLuc, FIG. 5
From the text: In this example, a luciferase reporter construct GL-3 was transfected into the cells expressing shRNA against Luciferase mRNA.

[2] = test system: siRNA-mediated mRNA degradation and gene knock-down (GFP siRNA); assay: GFP reporter screen: 293 cells stably expressing GFP and an siRNA hairpin against GFP; conditions: human 293 cells, GFP reporter with siRNA hairpin against GFP; Spectrum Collection screen
Protocol: FIG. 2 discloses one embodiment of the cell-based reporter system of the invention. In this example, a human 293-cell line stably expressing a reporter gene, GFP, was used. This cell line was further transfected with a construct that expresses siRNA hairpin against GFP, which can decrease the level of GFP expression. Individual clones were isolated with greatly (although not completely) reduced GFP expression.
Using the above-identified clones, a screen was performed using The Spectrum Collection (MicroSource Discovery Systems, Inc., Gaylordsville, Conn., United States of America), which contains 2000 biologically active and structurally diverse compounds from libraries of known drugs, experimental bioactives, and pure natural products. For example, in one embodiment, a pilot screen of this library identified one inhibitor and one enhancer of siRNA-mediated mRNA degradation.
To identify the chemical compounds that modulate the siRNA and miRNA pathway, a screening strategy was used. A human 293-cell line stably expressing a reporter gene, GFP, was used. This cell line was further transfected with a construct that expresses siRNA hairpin against GFP, which could knock down the expression of GFP. […]

Compound | miRNA-mediated translational suppression (miR-30a-3p) | knock-down efficiency of shRNA against luciferase mRNA (relative luciferase activity) [1] | knock-down efficiency of shRNA against luciferase mRNA (relative luciferase activity) ([1]; listed as ciproflaxin) | effect on siRNA-mediated mRNA degradation and gene knock-down [2]
COc1cc(C(=O)NCc2ccc(OCCN(C)C)cc2)cc(OC)c1OC [RNAi-I] | released the miRNA-mediated translational suppression |  |  | 
O=C(O)c1cn(C2CC2)c2cc(N3CCNCC3)c(F)cc2c1=O [ciprofloxacin] |  | enhance siRNA-mediated mRNA degradation | increased the knock-down efficiency | 
CCn1cc(C(=O)O)c(=O)c2cc(F)c(N3CCNCC3)nc21 [enoxacin] | no effect | increased the knock-down efficiency |  | enhance siRNA-mediated mRNA degradation and gene knock-down
COc1cc(C(=O)NCc2ccc(OCCN(C)C)cc2)cc(OC)c1OC [trimethobenzamide] |  |  |  | inhibit siRNA-mediated mRNA degradation and gene knock-down
